Results taken from publication PMC9653409, “Generative deep learning enables the discovery of a potent and selective RIPK1 inhibitor” (Nature Communications, 2022).
Where two headings read alike, the source gives them in different places.

Legend:
Assay in all cases: Kinase inhibitory activity profiling of RI-962@10 µM (406 kinases, Eurofins)
Format in all cases: biochemical
[1] = target: panel of human kinases (kinase named in endpoint) (Homo sapiens, UniProt O00329); conditions: 10 µM; read-out: Activity (%), PI3 Kinase (p110d/p85a)(h)
How it was run: (§1)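 Radiometric filter-binding kinase assays: enzyme preincubated 15 min with compound in 8 mM MOPS pH 7.0, 0.2 mM EDTA, 250 μM peptide substrate, 10 mM magnesium acetate, 10 μM [γ-33P]-ATP. Reaction started with Mg/ATP, run 40 min at room temperature, stopped with phosphoric acid; 33P incorporation read by scintillation counting. Other kinases by similar protocols.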

[2] = target: panel of human kinases (kinase named in endpoint) (Homo sapiens, UniProt O14757); conditions: 10 µM; read-out: Activity (%), CHK1(h)
How it was run: as §1

[3] = target: panel of human kinases (kinase named in endpoint) (Homo sapiens, UniProt O14965); conditions: 10 µM; read-out: Activity (%), Aurora-A(h)
How it was run: as §1

[4] = target: panel of human kinases (kinase named in endpoint) (Homo sapiens, UniProt O94804); conditions: 10 µM; read-out: Activity (%), LOK(h)
How it was run: as §1

[5] = target: panel of human kinases (kinase named in endpoint) (Homo sapiens, UniProt O96017); conditions: 10 µM; read-out: Activity (%), CHK2(h)
How it was run: as §1

[6] = target: panel of human kinases (kinase named in endpoint) (Homo sapiens, UniProt P08069); conditions: 10 µM
How it was run: as §1

[7] = target: panel of human kinases (kinase named in endpoint) (Homo sapiens, UniProt P11362, V561M); conditions: 10 µM; read-out: Activity (%), FGFR1(V561M)(h)
How it was run: as §1

[8] = target: panel of human kinases (kinase named in endpoint) (Homo sapiens, UniProt P17252); conditions: 10 µM; read-out: Activity (%), PKCα(h)
How it was run: as §1

[9] = target: panel of human kinases (kinase named in endpoint) (Homo sapiens, UniProt P24723); conditions: 10 µM; read-out: Activity (%), PKCη(h)
How it was run: as §1

[10] = target: panel of human kinases (kinase named in endpoint) (Homo sapiens, UniProt P50750); conditions: 10 µM; read-out: Activity (%), CDK9/cyclin T1(h)
How it was run: as §1

[11] = target: panel of human kinases (kinase named in endpoint) (Homo sapiens, UniProt P51617); conditions: 10 µM; read-out: Activity (%), IRAK1(h)
How it was run: as §1

[12] = target: panel of human kinases (kinase named in endpoint) (Homo sapiens, UniProt P78368); conditions: 10 µM; read-out: Activity (%), CK1γ2(h)
How it was run: as §1

[13] = target: panel of human kinases (kinase named in endpoint) (Homo sapiens, UniProt Q05655); conditions: 10 µM; read-out: Activity (%), PKCδ(h)
How it was run: as §1

[14] = target: panel of human kinases (kinase named in endpoint) (Homo sapiens, UniProt Q13627); conditions: 10 µM; read-out: Activity (%), DYRK1A(h)
How it was run: as §1

[15] = target: panel of human kinases (kinase named in endpoint) (Homo sapiens, UniProt Q14289); conditions: 10 µM; read-out: Activity (%), Pyk2(h)
How it was run: as §1

[16] = target: panel of human kinases (kinase named in endpoint) (Homo sapiens, UniProt Q15139); conditions: 10 µM; read-out: Activity (%), PKCμ(h)
How it was run: as §1

[17] = target: panel of human kinases (kinase named in endpoint) (Homo sapiens, UniProt Q8IW41); conditions: 10 µM; read-out: Activity (%), PRAK(h)
How it was run: as §1

[18] = target: panel of human kinases (kinase named in endpoint) (Homo sapiens, UniProt Q92772); conditions: 10 µM; read-out: Activity (%), CDKL2(h)
How it was run: as §1

[19] = target: panel of human kinases (kinase named in endpoint) (Homo sapiens, UniProt Q96NX5); conditions: 10 µM; read-out: Activity (%), CaMKIγ(h)
How it was run: as §1

[20] = target: panel of human kinases (kinase named in endpoint) (Homo sapiens, UniProt Q99683); conditions: 10 µM; read-out: Activity (%), ASK1(h)
How it was run: as §1

[21] = target: panel of human kinases (kinase named in endpoint) (Homo sapiens, UniProt Q99755); conditions: 10 µM; read-out: Activity (%), PIP5K1a(h)
How it was run: as §1

[22] = target: panel of human kinases (kinase named in endpoint) (Homo sapiens, UniProt Q9H0K1); conditions: 10 µM; read-out: Activity (%), SIK2(h)
How it was run: as §1

[23] = target: panel of human kinases (kinase named in endpoint) (Homo sapiens, UniProt Q9UL54); conditions: 10 µM; read-out: Activity (%), TAO2(h)
How it was run: as §1

[24] = target: panel of human kinases (kinase named in endpoint) (Homo sapiens, UniProt Q9UPE1); conditions: 10 µM; read-out: Activity (%), MSSK1(h)
How it was run: as §1

[25] = target: panel of human kinases (kinase named in endpoint) (Homo sapiens, UniProt Q9Y2U5); conditions: 10 µM; read-out: Activity (%), MEKK2(h)
How it was run: as §1

panel of human kinases (kinase named in endpoint) (Homo sapiens, UniProt P08069), sequence (P08069 31-1367): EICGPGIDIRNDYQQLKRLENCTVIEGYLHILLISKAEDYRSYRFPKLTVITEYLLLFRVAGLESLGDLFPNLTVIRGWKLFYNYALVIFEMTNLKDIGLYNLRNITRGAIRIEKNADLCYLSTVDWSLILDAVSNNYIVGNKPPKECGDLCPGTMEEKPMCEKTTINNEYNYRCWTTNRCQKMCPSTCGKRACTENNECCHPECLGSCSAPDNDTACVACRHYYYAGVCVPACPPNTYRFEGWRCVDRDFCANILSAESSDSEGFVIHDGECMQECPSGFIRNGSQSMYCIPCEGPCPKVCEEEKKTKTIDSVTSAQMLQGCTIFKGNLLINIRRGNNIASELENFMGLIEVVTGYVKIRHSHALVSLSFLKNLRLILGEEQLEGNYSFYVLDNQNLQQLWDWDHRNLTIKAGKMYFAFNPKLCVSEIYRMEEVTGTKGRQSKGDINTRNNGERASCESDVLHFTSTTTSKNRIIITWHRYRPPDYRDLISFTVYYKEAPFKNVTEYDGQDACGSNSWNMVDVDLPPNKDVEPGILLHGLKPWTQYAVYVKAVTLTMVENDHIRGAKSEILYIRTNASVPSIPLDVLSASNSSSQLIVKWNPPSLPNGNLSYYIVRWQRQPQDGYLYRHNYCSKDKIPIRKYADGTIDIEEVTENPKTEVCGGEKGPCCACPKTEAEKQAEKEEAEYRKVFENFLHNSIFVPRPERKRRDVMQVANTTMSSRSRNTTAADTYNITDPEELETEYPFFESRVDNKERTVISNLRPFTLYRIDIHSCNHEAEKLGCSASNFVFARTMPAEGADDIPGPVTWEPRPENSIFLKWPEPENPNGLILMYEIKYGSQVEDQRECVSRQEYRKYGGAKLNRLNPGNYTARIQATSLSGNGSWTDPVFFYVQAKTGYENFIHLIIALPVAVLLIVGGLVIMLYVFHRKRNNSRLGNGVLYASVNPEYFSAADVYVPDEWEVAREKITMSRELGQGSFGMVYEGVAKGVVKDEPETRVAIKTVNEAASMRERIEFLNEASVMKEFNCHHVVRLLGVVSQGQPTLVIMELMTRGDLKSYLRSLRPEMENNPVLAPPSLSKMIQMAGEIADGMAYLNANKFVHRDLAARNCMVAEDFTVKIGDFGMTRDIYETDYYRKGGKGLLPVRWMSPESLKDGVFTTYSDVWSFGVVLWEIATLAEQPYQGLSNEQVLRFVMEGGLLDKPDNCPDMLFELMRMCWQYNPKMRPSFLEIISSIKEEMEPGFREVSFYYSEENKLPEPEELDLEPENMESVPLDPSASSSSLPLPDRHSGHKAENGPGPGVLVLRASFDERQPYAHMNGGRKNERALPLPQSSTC
panel of human kinases (kinase named in endpoint) (Homo sapiens, UniProt P50750), sequence (P50750 whole entry): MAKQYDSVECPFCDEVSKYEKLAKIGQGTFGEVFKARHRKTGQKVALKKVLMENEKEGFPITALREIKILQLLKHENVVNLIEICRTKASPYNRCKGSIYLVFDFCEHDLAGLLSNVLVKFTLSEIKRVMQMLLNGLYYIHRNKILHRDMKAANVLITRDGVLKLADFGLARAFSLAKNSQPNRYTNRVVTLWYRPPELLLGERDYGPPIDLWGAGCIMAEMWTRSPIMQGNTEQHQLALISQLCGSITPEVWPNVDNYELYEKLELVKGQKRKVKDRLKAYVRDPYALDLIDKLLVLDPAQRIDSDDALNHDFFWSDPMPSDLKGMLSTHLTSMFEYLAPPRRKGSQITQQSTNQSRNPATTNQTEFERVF
panel of human kinases (kinase named in endpoint) (Homo sapiens, UniProt Q99755), sequence (Q99755 whole entry): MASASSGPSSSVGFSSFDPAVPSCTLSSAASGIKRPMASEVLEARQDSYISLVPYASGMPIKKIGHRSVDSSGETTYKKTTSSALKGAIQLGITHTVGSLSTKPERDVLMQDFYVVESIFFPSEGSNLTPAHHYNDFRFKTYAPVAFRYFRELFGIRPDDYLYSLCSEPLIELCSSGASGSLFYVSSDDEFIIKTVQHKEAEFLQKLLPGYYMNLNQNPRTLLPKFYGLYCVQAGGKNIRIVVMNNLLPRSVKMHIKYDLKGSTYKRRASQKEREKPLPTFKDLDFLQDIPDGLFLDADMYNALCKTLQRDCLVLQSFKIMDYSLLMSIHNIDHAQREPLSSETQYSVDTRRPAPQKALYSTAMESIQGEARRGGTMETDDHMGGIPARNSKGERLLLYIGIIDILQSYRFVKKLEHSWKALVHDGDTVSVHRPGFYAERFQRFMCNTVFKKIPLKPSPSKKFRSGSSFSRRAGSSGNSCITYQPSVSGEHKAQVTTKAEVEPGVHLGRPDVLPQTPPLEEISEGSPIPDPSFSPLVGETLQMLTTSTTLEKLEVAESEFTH
panel of human kinases (kinase named in endpoint) (Homo sapiens, UniProt O94804), sequence (O94804 whole entry): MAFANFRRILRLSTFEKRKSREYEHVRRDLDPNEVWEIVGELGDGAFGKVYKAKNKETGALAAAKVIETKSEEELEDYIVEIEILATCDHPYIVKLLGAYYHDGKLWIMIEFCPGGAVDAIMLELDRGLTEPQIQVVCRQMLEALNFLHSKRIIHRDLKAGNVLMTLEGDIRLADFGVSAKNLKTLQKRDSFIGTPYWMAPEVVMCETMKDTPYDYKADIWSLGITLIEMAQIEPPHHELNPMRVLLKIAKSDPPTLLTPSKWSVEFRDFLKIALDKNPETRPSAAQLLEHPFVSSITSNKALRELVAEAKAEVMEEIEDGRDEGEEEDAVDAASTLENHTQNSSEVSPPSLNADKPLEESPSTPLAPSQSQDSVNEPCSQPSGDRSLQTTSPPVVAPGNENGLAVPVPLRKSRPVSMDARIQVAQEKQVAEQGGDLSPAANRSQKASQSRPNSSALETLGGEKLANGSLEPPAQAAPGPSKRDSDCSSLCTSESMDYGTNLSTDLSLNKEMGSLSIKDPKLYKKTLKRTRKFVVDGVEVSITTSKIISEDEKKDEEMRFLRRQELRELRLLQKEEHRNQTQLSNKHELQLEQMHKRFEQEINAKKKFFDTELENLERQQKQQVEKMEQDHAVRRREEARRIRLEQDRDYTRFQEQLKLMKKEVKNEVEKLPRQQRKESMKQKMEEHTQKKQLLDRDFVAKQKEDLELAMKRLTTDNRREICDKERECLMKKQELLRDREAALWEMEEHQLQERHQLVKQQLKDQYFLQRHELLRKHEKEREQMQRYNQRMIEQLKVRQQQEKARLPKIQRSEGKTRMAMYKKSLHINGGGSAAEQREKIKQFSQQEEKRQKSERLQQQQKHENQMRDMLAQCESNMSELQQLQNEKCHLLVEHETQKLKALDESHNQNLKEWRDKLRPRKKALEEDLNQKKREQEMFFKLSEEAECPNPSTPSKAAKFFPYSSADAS
panel of human kinases (kinase named in endpoint) (Homo sapiens, UniProt Q8IW41), sequence (Q8IW41 whole entry): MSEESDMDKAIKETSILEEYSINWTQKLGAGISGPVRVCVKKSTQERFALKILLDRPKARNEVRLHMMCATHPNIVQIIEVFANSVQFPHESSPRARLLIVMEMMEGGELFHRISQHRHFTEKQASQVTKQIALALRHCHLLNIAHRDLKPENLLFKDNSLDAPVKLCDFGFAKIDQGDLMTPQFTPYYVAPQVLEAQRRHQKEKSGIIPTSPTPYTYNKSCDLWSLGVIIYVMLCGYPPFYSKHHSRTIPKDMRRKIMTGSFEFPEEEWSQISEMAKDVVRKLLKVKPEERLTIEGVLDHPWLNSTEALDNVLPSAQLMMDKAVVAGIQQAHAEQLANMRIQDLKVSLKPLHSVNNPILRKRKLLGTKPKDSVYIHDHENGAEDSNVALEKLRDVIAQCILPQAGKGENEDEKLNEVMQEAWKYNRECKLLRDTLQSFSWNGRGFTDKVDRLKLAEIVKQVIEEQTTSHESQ
panel of human kinases (kinase named in endpoint) (Homo sapiens, UniProt Q9UPE1), sequence (Q9UPE1 whole entry): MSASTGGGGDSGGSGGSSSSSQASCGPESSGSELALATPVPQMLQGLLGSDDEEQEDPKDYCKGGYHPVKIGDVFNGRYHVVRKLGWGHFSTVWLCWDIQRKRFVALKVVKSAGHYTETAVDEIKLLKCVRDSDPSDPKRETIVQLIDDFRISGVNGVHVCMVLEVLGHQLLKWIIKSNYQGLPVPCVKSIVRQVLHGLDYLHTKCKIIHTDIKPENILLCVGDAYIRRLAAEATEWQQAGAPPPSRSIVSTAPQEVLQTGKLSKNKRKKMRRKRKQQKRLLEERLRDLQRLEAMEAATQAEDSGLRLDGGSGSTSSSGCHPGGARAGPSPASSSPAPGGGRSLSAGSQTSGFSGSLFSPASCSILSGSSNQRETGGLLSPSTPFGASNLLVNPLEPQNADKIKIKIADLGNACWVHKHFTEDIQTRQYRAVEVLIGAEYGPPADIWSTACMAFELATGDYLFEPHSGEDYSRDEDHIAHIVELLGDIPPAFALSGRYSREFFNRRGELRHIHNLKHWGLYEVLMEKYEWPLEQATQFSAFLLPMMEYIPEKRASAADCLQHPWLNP

Question: Which activity at 10 µM [1] does the source give for `CC(C)C(=O)Nc1nc2cc(-c3ccc4c(c3)c(C(=O)NC(C)c3ccccc3)cn4C)ccn2n1` (centres unmarked) [RI-962] here?
Answer: Its activity at 10 µM is 64%.

Question: What about the activity at 10 µM [2] of the same compound?
Answer: Its activity at 10 µM is 124%.

Question: And the activity at 10 µM [3]?
Answer: The activity at 10 µM was 95%.

Question: What about the activity at 10 µM [4] of the same compound?
Answer: Its activity at 10 µM is 108%.

Question: And the activity at 10 µM [5]?
Answer: The activity at 10 µM was 98%.

Question: And the activity at 10 µM ([6]; read-out: Activity (%), IGF-1R(h))?
Answer: The activity at 10 µM was 94%.

Question: And the activity at 10 µM ([6]; read-out: Activity (%), IGF-1R(h), activated)?
Answer: Its activity at 10 µM is 92%.

Question: And the activity at 10 µM [7]?
Answer: The activity at 10 µM was 99%.

Question: And the activity at 10 µM [8]?
Answer: Its activity at 10 µM is 97%.

Question: And the activity at 10 µM [9]?
Answer: Its activity at 10 µM is 99%.

Question: And the activity at 10 µM [10]?
Answer: Its activity at 10 µM is 67%.

Question: What about the activity at 10 µM [11] of the same compound?
Answer: The activity at 10 µM was 103%.

Question: What about the activity at 10 µM [12] of the same compound?
Answer: The activity at 10 µM was 88%.

Question: What about the activity at 10 µM [13] of the same compound?
Answer: The activity at 10 µM was 90%.

Question: And the activity at 10 µM [14]?
Answer: The activity at 10 µM was 96%.

Question: And the activity at 10 µM [15]?
Answer: Its activity at 10 µM is 106%.

Question: What about the activity at 10 µM [16] of the same compound?
Answer: Its activity at 10 µM is 87%.

Question: And the activity at 10 µM [17]?
Answer: The activity at 10 µM was 64%.

Question: What about the activity at 10 µM [18] of the same compound?
Answer: Its activity at 10 µM is 77%.

Question: What about the activity at 10 µM [19] of the same compound?
Answer: Its activity at 10 µM is 113%.

Question: And the activity at 10 µM [20]?
Answer: Its activity at 10 µM is 97%.

Question: What about the activity at 10 µM [21] of the same compound?
Answer: The activity at 10 µM was 106%.

Question: And the activity at 10 µM [22]?
Answer: Its activity at 10 µM is 101%.

Question: What about the activity at 10 µM [23] of the same compound?
Answer: Its activity at 10 µM is 92%.

Question: What about the activity at 10 µM [24] of the same compound?
Answer: The activity at 10 µM was 85%.

Question: And the activity at 10 µM [25]?
Answer: Its activity at 10 µM is 98%.
